# Reference: US12624003B2, “Carboxylic acid containing indanyl compounds for the treatment of neurodegenerative diseases” (Celgene Corporation, priority 2020, dated 2026)
# Molecular target: T1, S1P5 (Homo sapiens, UniProt Q9H228)
# T1 construct: expressed in transfected cells; host or cells: CHO cells (membranes)
# Assay: [35S]-GTPγS functional binding assay on CHO-S1P5 membranes
# Type: biochemical
# Conditions: membranes of CHO cells expressing recombinant S1P5 receptors; measure of S1P5 agonism
# Description: CHO cells expressing recombinant S1P5 receptors were cultured in 500 cm^2 culture trays and, once confluent, rinsed and detached with cell-lifting buffer (10 mM HEPES, 154 mM NaCl, 6.85 mM EDTA, pH 7.4). Cells were then pelleted by centrifugation, resuspended, and homogenized in membrane preparation buffer (10 mM HEPES and 10 mM EDTA, pH 7.4) using a Polytron PT 1200E homogenizer (Kinematica, Luzern, Switzerland). Cellular proteins were pelleted by centrifugation at 48,000×g at 4° C. for 30 minutes. The resulting supernatant was discarded, and the pellet was re-suspended again in membrane preparation buffer, homogenized for a second time, and then centrifuged again as described above. The final cellular protein pellet was suspended in ice cold resuspension buffer (10 mM HEPES and 0.1 mM EDTA, pH 7.4), divided into aliquots, and stored at −80° C. until use.
# Functional binding assays for [^35S]-GTPγS were performed in 96-well non-binding surface plates with a final volume of 200 μL. The test compounds were serially diluted in DMSO and added to assay plates using a Tecan D300E digital printer with a total volume of 0.4 μL. The control sphingosine-1-phosphate (S1P) was prepared separately by preparing a 400 μM stock solution from a 100 nmol pellet of SIP in 10 mM Na2CO3 with 2% s-cyclodextrin. The serial dilution of S1P was done using complete assay buffer (20 mM HEPES, 10 mM MgCl2, 100 mM NaCl, 1 mM EDTA, 0.1% fatty acid free bovine serum albumin (BSA), and 30 μg/mL saponin, pH 7.4) and transferred to wells already containing 0.4 μL DMSO. All the wells were then loaded to a total volume of 40 μL of complete assay buffer, except the non-specific binding (NSB) wells. For NSB wells, 40 μL/well of 50 μM GTPγS (Sigma Aldrich, cat #G8634, St. Louis, MO) was added to wells containing 0.4 μL of DMSO. The assay was started by the addition of 120 μL/well of CHO-S1P receptor membrane solution containing 40 μg/mL of membrane protein, 16.67 μM guanosine diphosphate (GDP; Sigma Aldrich, cat #G7127, St. Louis, MO), and 2.5 mg/mL of WGA PVT SPA beads in complete buffer. Assay plates were then sealed and incubated at room temperature with gentle agitation for 30 minutes. Next, 40 μL/well of 1 nM of [^35S]-GTPγS (PerkinElmer, cat #NEG030X250UC, Waltham, MA) in basic assay buffer (20 mM HEPES, 10 mM MgCl2, 100 mM NaCl, and 1 mM EDTA, pH 7.4) was added to the assay plates to yield a final concentration of […] and the plates were further incubated for 40 minutes at room temperature with gentle agitation. The assay was terminated by centrifugation of the plates at 1000 rpm for 3 minutes using an Eppendorf 5810R centrifuge (Eppendorf, Hamburg, Germany) and G protein bound radioactivity was quantitated using a MicroBeta2 microplate scintillation counter (PerkinElmer, Waltham, MA). As G protein bound radioactivity directly correlates to receptor activation and coupling to the G protein, this assay is a measure of S1P5 agonism.
# T1 sequence (Q9H228 whole entry, species assumed): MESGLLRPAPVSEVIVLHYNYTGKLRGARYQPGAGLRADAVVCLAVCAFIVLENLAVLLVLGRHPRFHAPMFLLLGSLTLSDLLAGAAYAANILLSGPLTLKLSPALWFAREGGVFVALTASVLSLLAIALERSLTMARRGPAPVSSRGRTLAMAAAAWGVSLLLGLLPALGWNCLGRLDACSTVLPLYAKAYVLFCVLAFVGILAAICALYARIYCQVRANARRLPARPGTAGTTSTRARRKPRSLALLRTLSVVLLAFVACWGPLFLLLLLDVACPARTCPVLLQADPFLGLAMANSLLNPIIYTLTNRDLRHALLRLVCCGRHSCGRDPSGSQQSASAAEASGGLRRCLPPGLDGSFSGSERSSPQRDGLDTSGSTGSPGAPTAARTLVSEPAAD
row,Structure (SMILES),EC50 [nM]
1,"O=C(O)C1CCN(C2CCc3cc(-c4ccc5c(c4)OCC5)ccc32)CC1 (single isomer, unassigned) [Compound 41, 1-(5-(2,3-dihydrobenzofuran-6-yl)-2,3-dihydro-1H-inden-1-yl)piperidine-4-carboxylic acid]",100 to 1000
2,"O=C(O)C1C2CCC1CN(C1CCc3cc(C#Cc4cccc(F)c4)ccc31)C2 [Compound 10, (1R,5S,8s)-3-(5-((3-fluorophenyl)ethynyl)-2,3-dihydro-1H-inden-1-yl)-3-azabicyclo[3.2.1]-octane-8-carboxylic acid]",100 to 1000
3,"O=C(O)[C@@H]1CCCN(C2CCc3cc(C#Cc4cccc(F)c4)ccc32)C1 (single isomer, unassigned) [Compound 7b]",100 to 1000
4,"O=C(O)[C@@H]1CCN(C2CCc3cc(C#Cc4cccc(F)c4)ccc32)C1 (single isomer, unassigned) [Compound 14a]",≤ 10
5,"O=C(O)C1CN(C2CCc3cc(C#Cc4c(Cl)cccc4Cl)ccc32)C1 (single isomer, unassigned) [Compound 18, 1-(5-((2,6-dichlorophenyl)ethynyl)-2,3-dihydro-1H-inden-1-yl)azetidine-3-carboxylic acid]",≤ 10
